# Values of other authors, collected in patent publication US20040039036A1, “Water-soluble liquid internal medicine” (priority 2000, published 2004).
# Details: JP-A-11-193233 injectable solution, famotidine 1 mg/mL; after preservation at 40° C. for 2 months
compound,measurement,value
NC(N)=Nc1nc(CSCCC(N)=NS(N)(=O)=O)cs1 [famotidine],residual rate,96.6%
